Experimental data taken from PMC3748599 (Environmental science & technology, 2013).
Like-named read-outs stand apart in the source and are kept apart here.

How the values were obtained:
rat liver microsomes [1] = conditions: for parent compound detected at end of incubation (% of initial amount): 30 min; for HEPOXB formed (% of the HEPTA added): substrate HEPTA
[2] = cited from earlier work
rat liver microsomes [3] = experiment: Enantioselective analysis; format: in vitro ADME; conditions: for enantiomeric enrichment of the parent compound: racemic substrate; for enantiomeric fraction (EF) of metabolite, range: range over microsomal preparations
CYP3A = conditions: liver microsomes of pretreated male rats; cited from earlier work
CYP1A = conditions: liver microsomes of pretreated male rats; cited from earlier work
CYP2B = conditions: liver microsomes of pretreated male rats; cited from earlier work
[4] = microsomes from DX- and VH-pretreated rats
[5] = microsomes from PB-pretreated rats
[6] = microsomes from DX-pretreated rats
[7] = microsomes from VH-pretreated rats
[8] = formed from cis- and trans-chlordane
[9] = substrate racemic C-CHLORD, microsomes from PB-pretreated rats

ClC1=C(Cl)C2(Cl)C3C(Cl)C=CC3C1(Cl)C2(Cl)Cl (stereo not drawn) [HEPTA, Heptachlor]
formation as metabolite from both chlordane isomers (rat liver microsomes [1]; microsomal incubations with T-CHLORD and C-CHLORD): not detected | change of parent compound levels in incubation (rat liver microsomes [1]; [4]): significant decrease | change of parent compound levels in incubation (rat liver microsomes [1]; [5]): significant decrease | parent compound detected at end of incubation (% of initial amount) (rat liver microsomes [1]; [5]): 6%

ClC1=C(Cl)[C@]2(Cl)[C@H]3[C@H](Cl)[C@@H](Cl)C[C@H]3[C@@]1(Cl)C2(Cl)Cl (relative stereo) [T-CHLORD, trans-chlordane]
enantiomeric enrichment in tissues ([2]; rats treated with T-CHLORD): (-)-T-CHLORD is enriched | enantiomeric enrichment of the parent compound (rat liver microsomes [3]; [6]): slight enrichment of (-)-T-CHLORD | enantiomeric enrichment of the parent compound (rat liver microsomes [3]; [5]): (-)-T-CHLORD was highly enriched | enantiomeric enrichment of the parent compound (rat liver microsomes [3]; [7]): No enantiomeric enrichment | parent compound detected at end of incubation (% of initial amount) (rat liver microsomes [1]; [6]): 80% | parent compound detected at end of incubation (% of initial amount) (rat liver microsomes [1]; [5]): 32% | parent compound detected at end of incubation (% of initial amount) (rat liver microsomes [1]; [7]): 94%

CCC1(c2ccccc2)C(=O)NC(=O)NC1=O [PB, phenobarbital]
CYP3A activity relative to microsomes from VH-pretreated animals (CYP3A): 2 times | CYP1A activity relative to microsomes from VH-pretreated animals (CYP1A): 4 times | CYP2B activity relative to microsomes from VH-pretreated animals (CYP2B): 96 times

ClC1=C(Cl)C2(Cl)[C@H]3C[C@H](Cl)[C@H](Cl)[C@H]3C1(Cl)C2(Cl)Cl (stereo partly drawn) [C-CHLORD, cis-Chlordane]
enantiomeric enrichment of the parent compound (rat liver microsomes [3]; [6]): did not reach statistical significance | enantiomeric enrichment of the parent compound (rat liver microsomes [3]; [5]): (-)-C-CHLORD was only modestly enriched | enantiomeric enrichment of the parent compound (rat liver microsomes [3]; [7]): (-)-C-CHLORD was only modestly enriched | change of parent compound levels in incubation (rat liver microsomes [1]; [4]): no statistically significant change | change of parent compound levels in incubation (rat liver microsomes [1]; [5]): clearly decreased

ClC1=C(Cl)[C@]2(Cl)[C@@H]3[C@@H](Cl)[C@@H]4O[C@@H]4[C@@H]3[C@@]1(Cl)C2(Cl)Cl (single isomer, unassigned; isomer a) [HEPOXA, heptachlor epoxide isomer A]
formation as metabolite from HEPTA (rat liver microsomes [1]; all three rat liver microsomal preparations): not to HEPOXA

ClC1=C(Cl)[C@]2(Cl)[C@H]3[C@H]([C@H](Cl)[C@]4(Cl)O[C@H]34)[C@@]1(Cl)C2(Cl)Cl [OXY, oxychlordane]
enantiomeric enrichment in vivo ([2]; female rats treated for 28 days with trans-nonachlor or T-CHLORD): enrichment of (+)-OXY | enantiomeric enrichment in vivo ([2]; male rats, all time-points investigated): (-)-OXY was enriched | enantiomeric fraction (EF) of metabolite, range (rat liver microsomes [3]; [8]): 0.45-0.89 | enantiomeric enrichment of metabolite (rat liver microsomes [3]; [9]): (+)-OXY was enriched | enantiomeric enrichment of metabolite (rat liver microsomes [3]; substrate racemic T-CHLORD, microsomes from DX-pretreated rats): (-)-OXY was slightly enriched | enantiomeric enrichment of metabolite (rat liver microsomes [3]; substrate racemic T-CHLORD, microsomes from PB-pretreated rats): Enrichment of (+)-OXY | OXY formed (% of the total C-CHLORD added) (rat liver microsomes [1]; substrate C-CHLORD, microsomes from PB-pretreated rats): approximately 2% | OXY levels formed, PB versus DX microsomes (rat liver microsomes [1]; substrate T-CHLORD, PB- versus DX-pretreated rats): 9 times

ClC1=C(Cl)[C@]2(Cl)[C@@H]3[C@@H](Cl)[C@H]4O[C@H]4[C@@H]3[C@@]1(Cl)C2(Cl)Cl (single isomer, unassigned; isomer b) [HEPOXB, heptachlor epoxide isomer B]
enantiomeric fraction (EF) of metabolite, range (rat liver microsomes [3]; formed from heptachlor): 0.44-0.54 | enantiomeric enrichment of metabolite (rat liver microsomes [3]; substrate racemic HEPTA, microsomes from DX-pretreated rats): enrichment of (-)-HEPOXB | enantiomeric enrichment of metabolite (rat liver microsomes [3]; substrate racemic HEPTA, microsomes from PB-pretreated rats): slight but significant enrichment of (+)-HEPOXB | enantiomeric enrichment of metabolite (rat liver microsomes [3]; substrate racemic HEPTA, microsomes from VH-pretreated rats): enrichment of (-)-HEPOXB | HEPOXB formed (% of the HEPTA added) (rat liver microsomes [1]; [6]): 47% | HEPOXB formed (% of the HEPTA added) (rat liver microsomes [1]; [5]): 82% | HEPOXB formed (% of the HEPTA added) (rat liver microsomes [1]; [7]): 33%

ClC1=CC2C(C1Cl)C1(Cl)C(Cl)=C(Cl)C2(Cl)C1(Cl)Cl (stereo not drawn) [DCC, 1,2-dichlorochlordene]
enantiomeric fraction (EF) of metabolite, range (rat liver microsomes [3]; [8]): 0.42-0.90 | enantiomeric enrichment of metabolite (rat liver microsomes [3]; substrate racemic C-CHLORD, microsomes from DX-pretreated rats): clear enrichment of E1-DCC | enantiomeric enrichment of metabolite (rat liver microsomes [3]; [9]): enrichment of E2-DCC | enantiomeric enrichment of metabolite (rat liver microsomes [3]; substrate racemic C-CHLORD, microsomes from VH-pretreated rats): clear enrichment of E1-DCC
